According to patent US20220304945A1, “METHODS OF TREATING METABOLIC SYNDROME RELATED CONDITIONS USING RETINOIC ACID RECEPTOR AGONISTS” (Cornell University, priority 2014, published 2022):
“Also recorded” adds a separate entry of the source.

Experiments:
Type in all cases: in vivo, mouse
[1] = tested on: HF-fed and genetically obese mice; experiment: Tissue triglyceride analysis and H and E staining of liver, pancreas, kidney, muscle, adipose tissue
From the text: Mice, diet, and drug treatment. Dietary Obesity Studies: Wild type (wt) male C57/BL6 male mice were maintained on either a standard laboratory chow-fed diet (Con) with 13% kcal fat, (diet #5053, Lab Diet, Inc, St. Louis, Mo.) or a high fat, western style diet (HFD) with 45% kcals from fat, (diet #58126, Lab Diet, Inc., St. Louis, Mo.) for 4 months. One month after the start of the HFD treatment, the Con and HFD groups werefurther split into 3 additional groups for […] to: i) remain on either Con or HFD and the drinking water containing 1% DMSO; ii) Con or HFD and drinking water containing 3.0 mg/100 ml AC261066, a specific RARβ agonist in 1% DMSO, or iii) Con or HFD and drinking water containing 3.0 mg/100 ml of AC55649, another specific RARβ agonist in 1% DMSO. All mice remained on their diets for 4 months. […]
Tissue Triglyceride Analysis: Total tissue lipids were extracted from using the Folch method. […] Tissue triglycerides were determined enzymatically using Triglycerides Reagent kit (Invitrogen, Life Technologies, Carlsbad, Calif., USA) according to the manufacture's protocol. Tissue triglycerides were normalized to tissue protein concentrations and reported as mean±standard error of the mean (S.E.M) and P-values were calculated using one-way analysis of variance followed by Bonferroni multiple comparison test post-hoc analysis.

TNF-α, RARβ2, LRAT mRNA = experiment: Semi-quantitative PCR of kidney, HF-fed mice; conditions: HF diet mice 4 months
From the text: Mice, diet, and drug treatment. WT male C57/BL6 male mice were maintained on either a standard laboratory chow-fed diet (CFD) with 13% kcal fat, (diet #5053, Lab Diet, Inc, St. Louis, Mo.) or a high fat, western style diet (HFD) with 60% kcals from fat, (diet #58126, Lab Diet, Inc., St. Louis, Mo.) for 4 months. One month after the start of the high fat diet treatment, the high fat diet group was further split into 2 groups for 3 months: i) high fat diet and the drinking water containing 1% DMSO; ii) high fat diet and the drinking water containing 1.5 mg/100 ml AC261066, a specific RARβ agonist. Then mice were sacrificed by cervical dislocation. Blood and various tissue samples were harvested.
Semi-Quantitative PCR. Total RNA was extracted from mouse tissues using TRIzol reagent (Life technologies) and (1 μg) was used to synthesize cDNA. cDNA synthesis was performed at 42° C. for 1 h in a final volume of 20 μl using qScript (Quanta, MD). Semi-quantitative PCR were performed Taq DNA polymerase (Invitrogen, CA). Three step PCR was run as follows: 94° C. for 30 s, 58-64° C. for 45 s for primer annealing and 72° C. for 1 min for primer extension. The number of cycles for each primer pair for amplification in the linear range was determined experimentally. PCR products were resolved on 2% agarose gels and visualized by staining with ehtidium bromide. Primers for gene expression used were as follows: […]

[2] = tested on: PPARα, CPT1-α, CPT2, ACAT1, FASN, SREBP1, ACC1, HSL, PLIN, ADIPOQ mRNA; experiment: Q-PCR of lipid metabolism genes in liver, pancreas and adipose tissue; conditions: Wt and Ob/Ob mice, pancreas, adipose
Description: RNA Isolation and cDNA Synthesis-Total RNA was isolated from whole pancreas and small intestine homogenates using RNeasy mini kits (Qiagen, Valencia, Calif.) and quantified using a Nano Drop 2000 spectrophotometer (Thermo Scientific, Wilmington, Del.). Total RNA (2 μg) was used to synthesize cDNA with random primers using a qScript cDNA synthesis kit (Quanta Biosciences, Gaithersburg, Md.).
Quantitative RT-PCR (Q-PCR)-Q-PCR was performed using SYBR Green PCR master mix on a Bio-Rad MyiQ2 Real Time PCR iCycler (Bio-Rad, Inc. Hercules, Calif.). Gene specific primers (Table 5) were used to amplify mRNA target genes, which were normalized to Hprt internal control genes. cDNA from 3-5 mice per experimental group was analyzed for relative mRNA fold changes, calculated using the Pfaffl method (Pfaffl M W, A new mathematical model for relative quantification in real-time RT-PCR, Nucleic Acids Res. 2001 May 1; 29(9):e45). Relative gene expression values are reported as mean±standard error of the mean (S.E.M) and P-values calculated using one-way analysis of variance followed by Bonferroni multiple comparison test post-hoc analysis.

## CCCCOCCOc1nc(-c2ccc(C(=O)O)c(F)c2)sc1C [AC261066]
[1]
  accumulation of liver, pancreas, kidney, muscle and adipose triglycerides: reduces
TNF-α, RARβ2, LRAT mRNA
  kidney LRAT mRNA level: restores
  kidney RARβ2 mRNA level: restores; also recorded: did not have decreased
  kidney TNF-α mRNA level: reduces
[2]
  tissue expression of genes involved in lipogenesis and mitochondrial oxidation of lipids: alters
